SMILES strings stand for the structures. Values after ≈ are worked out from the molar mass of the structure shown. Where only a bound is given, the exact number is not on record here.

The test system of data set [1] is NCI-H322M. As to the kind of experiment: Cytotoxicity against human NCI-H322M cells assessed as cell growth after 48 hrs by SRB assay relative to control. The format is functional.
Data set [2] concerns Escherichia coli. As to the kind of experiment: Antimicrobial activity against Escherichia coli ATCC 35218 after 24 hrs by broth microdilution method. The format is functional. As to conditions: ATCC 35218, 24 h.
The test system of data set [3] is K562. As to the kind of experiment: Cytotoxicity against human K562 cells assessed as cell growth after 48 hrs by SRB assay relative to control. The format is functional.
Data set [4] concerns CAKI-1. Put plainly: Cytotoxicity against human Caki1 cells assessed as cell growth after 48 hrs by SRB assay relative to control. The format is functional. Background: The SRB assay estimates cell density from bound dye.
Data set [5] concerns Escherichia coli. As to the kind of experiment: Antimicrobial activity against Escherichia coli ATCC 25922 after 24 hrs by broth microdilution method. The format is functional. As to conditions: ATCC 25922, 24 h. For orientation: In broth dilution the organism is exposed to a series of concentrations in liquid medium.
The test system of data set [6] is Pseudomonas aeruginosa. Put plainly: Antimicrobial activity against Pseudomonas aeruginosa ATCC 27853 after 24 hrs by broth microdilution method. In kind it is functional. To be noted: ATCC 27853, 24 h.
Data set [7] concerns Listeria monocytogenes. As to the kind of experiment: Antimicrobial activity against Listeria monocytogenes ATCC 19115 after 24 hrs by broth microdilution method. The format is functional. As to conditions: ATCC 19115, 24 h.
In data set [8] the test system is HCT-15. Put plainly: Cytotoxicity against human HCT15 cells assessed as cell growth after 48 hrs by SRB assay relative to control. In kind it is functional.
The subject of data set [9] is Klebsiella pneumoniae. Put plainly: Antimicrobial activity against Klebsiella pneumoniae ATCC 13883 after 24 hrs by broth microdilution method. The format is functional. As to conditions: ATCC 13883, 24 h.
For data set [10], the system named is MOLT-4. As to the kind of experiment: Cytotoxicity against human MOLT4 cells assessed as cell growth after 48 hrs by SRB assay relative to control. The format is functional.
Data set [11] has as its system Nakaseomyces glabratus. As to the kind of experiment: Antimicrobial activity against Candida glabrata ATCC 90030 after 24 hrs by broth microdilution method. As to conditions: ATCC 90030, 24 h. In kind it is functional.
Data set [12] deals with U-251. As to the kind of experiment: Cytotoxicity against human U251 cells assessed as cell growth after 48 hrs by SRB assay relative to control. In kind it is functional.
Data set [13] can be described thus: Cytotoxicity against human NCI-ADR-RES cells assessed as cell growth after 48 hrs by SRB assay relative to control. The format is functional.
Data set [14] has as its system Artemia salina. As to the kind of experiment: Toxicity in brine shrimp larvae assessed as mortality at 50 ug/ml after 24 hrs. In kind it is organism-based. As to conditions: in vivo.
In data set [15] the test system is SN12C. As to the kind of experiment: Cytotoxicity against human SN12C cells assessed as cell growth after 48 hrs by SRB assay relative to control. The format is functional.
For data set [16], the system named is KM12. Put plainly: Cytotoxicity against human KM12 cells assessed as cell growth after 48 hrs by SRB assay relative to control. In kind it is functional.
Data set [17] relates to SF-268. Put plainly: Cytotoxicity against human SF268 cells assessed as cell growth after 48 hrs by SRB assay relative to control. In kind it is functional.
The subject of data set [18] is Staphylococcus aureus. Put plainly: Antimicrobial activity against Staphylococcus aureus ATCC 25923 after 24 hrs by broth microdilution method. In kind it is functional. As to conditions: ATCC 25923, 24 h.
Data set [19] relates to NCI-H226. As to the kind of experiment: Cytotoxicity against human NCI-H226 cells assessed as cell growth after 48 hrs by SRB assay relative to control. In kind it is functional.
Data set [20] in a line: Toxicity in brine shrimp larvae assessed as mortality after 24 hrs. The format is organism-based. As to conditions: artemia salina, in vivo.
Data set [21] concerns Artemia salina. As to the kind of experiment: Toxicity in brine shrimp larvae assessed as mortality at 100 ug/ml after 24 hrs. In kind it is organism-based. To be noted: in vivo.
The subject of data set [22] is RPMI-8226. As to the kind of experiment: Cytotoxicity against human RPMI8226 cells assessed as cell growth after 48 hrs by SRB assay relative to control. In kind it is functional.
For data set [23], the system named is NCI-H522. As to the kind of experiment: Cytotoxicity against human NCI-H522 cells assessed as cell growth after 48 hrs by SRB assay relative to control. The format is functional.

The term MIC denotes the least concentration at which growth counts as inhibited. A lower MIC goes with a more susceptible organism. As a reminder, the LC50 is the concentration that kills 50% of the test population. For the compound `Cc1nc(SCC(=O)c2ccccc2)n(Nc2ccccc2)c1C`, the Activity in [1] was 90.31%; in data set [3], 89.68%; in [4], 88.11%; in [8] it was 99.3%; in [10], 100.2%; in data set [12], 97.26%. The Activity is on record as 96.87% in data set [13]; “Non-toxic” in data set [14]; 99.9% in [15]; 104.6% in data set [16]; 101.9% in data set [17]; 99.07% in data set [19]. In addition, the Activity entry in data set [21] is given as “Non-toxic”; in data set [22], 102.2%; in data set [23] it was 81.35%. For the same compound, the MIC in [2] was found to be 800 µg/mL (≈ 2370 µM); in data set [5] it was 800 µg/mL (≈ 2370 µM); in data set [6], 200 µg/mL (≈ 593 µM); in data set [7] it was 800 µg/mL (≈ 2370 µM); in [9], 800 µg/mL (≈ 2370 µM); in data set [11], 800 µg/mL (≈ 2370 µM). In [18], this compound gave a minimal inhibitory concentration (MIC) of 800 µg/mL (≈ 2370 µM). In addition, the LC50 at 24 h in data set [20] was > 1600 µg/mL.
`COc1ccc(C(=O)CSc2nc(C)c(C)n2Nc2ccccc2)cc1`: the Activity in [1] is on record as 82.37%; in data set [3], 87.79%; in data set [4] it was 81.41%; in data set [8], 88.63%; in [10] it was 89.96%; in data set [12] it was 93.77%. The Activity is 83.61% in data set [13]; 98.88% in data set [15]; 97.97% in data set [16]; 104.5% in [17]; 92.08% in [19]; 94.68% in data set [22]. For the same compound, the Activity in [23] is 77.18%. For the same compound, the MIC amounted to 800 µg/mL (≈ 2180 µM) in data set [2]; 400 µg/mL (≈ 1090 µM) in data set [5]; 200 µg/mL (≈ 544 µM) in [6]; 800 µg/mL (≈ 2180 µM) in [7]; 800 µg/mL (≈ 2180 µM) in data set [9]; 800 µg/mL (≈ 2180 µM) in [11]. This compound came in with an MIC in data set [18] of 800 µg/mL (≈ 2180 µM).
In the case of `Cc1nc(SCC(=O)c2ccc(Cl)cc2)n(Nc2ccccc2)c1C`, the Activity in [1] amounted to 88.63%; in [3], 88.1%; in data set [4] it was 78.89%; in data set [8] it was 92.65%; in data set [10], 87.31%; in [12], 90.68%. Besides, the Activity in data set [13] amounted to 93.39%; in data set [15], 93.18%; in [16], 105%; in [17], 103.9%; in [19], 95.15%; in [22] it was 92.33%. Also, the Activity in data set [23] turned out to be 79.92%. The MIC was 400 µg/mL (≈ 1080 µM) in data set [2]; 800 µg/mL (≈ 2150 µM) in [5]; 400 µg/mL (≈ 1080 µM) in data set [6]; 400 µg/mL (≈ 1080 µM) in data set [7]; 800 µg/mL (≈ 2150 µM) in data set [9]; 400 µg/mL (≈ 1080 µM) in data set [11]. It took 800 µg/mL (≈ 2150 µM) to inhibit growth in data set [18] (MIC).

The values are drawn from ChEMBL document CHEMBL3091428, “Synthesis and initial biological evaluation of substituted 1-phenylamino-2-thio-4,5-dimethyl-1H-imidazole derivatives” (Bioorg Med Chem Lett, 2013).
